In one experiment the target is GST tagged IRAK-4 (Homo sapiens (Human), UniProt Q9NWZ3). Briefly: IRAK-4 Kinase Assay (IMAP fluorescence polarization). The format is biochemical. To be noted: 100 μM ATP, 30 minutes at 25° C. As for the experimental part:
The kinase activity of IRAK-4 is determined by its ability to catalyze the phosphorylation of a fluorescent polypeptide substrate. The extent of phosphorylation is measured using the IMAP technology (Molecular Devices) where the phosphorylated fluorescent substrate binds to the large M(III)-based nanoparticles which reduces the rotational speed of the substrate and thus increases its fluorescent polarization (FP).
20 μl reaction mixture contains 10 mM TriHCl, pH 7.2, 0.5 nM GST tagged IRAK-4 (SignalChem), 100 nM fluorescent peptide substrate (RP7030, Molecular Devices), 100 μM ATP, 1 mM DTT, 1 mM MgCl2, and 0.01% Tween 20. The reaction is initiated by the addition of ATP. After incubation for 30 minutes at 25° C., 60 μl of Progressive IMAP Reagent (Molecular Devices) is added to stop the reaction. Change in RP7030's FP is determined by a FP reader (Analyst HT, LH, BioSystems).
In general terms: Polarisation of emitted light reports the rotation of a fluorescent probe.
GST tagged IRAK-4, sequence (Q9NWZ3 whole entry): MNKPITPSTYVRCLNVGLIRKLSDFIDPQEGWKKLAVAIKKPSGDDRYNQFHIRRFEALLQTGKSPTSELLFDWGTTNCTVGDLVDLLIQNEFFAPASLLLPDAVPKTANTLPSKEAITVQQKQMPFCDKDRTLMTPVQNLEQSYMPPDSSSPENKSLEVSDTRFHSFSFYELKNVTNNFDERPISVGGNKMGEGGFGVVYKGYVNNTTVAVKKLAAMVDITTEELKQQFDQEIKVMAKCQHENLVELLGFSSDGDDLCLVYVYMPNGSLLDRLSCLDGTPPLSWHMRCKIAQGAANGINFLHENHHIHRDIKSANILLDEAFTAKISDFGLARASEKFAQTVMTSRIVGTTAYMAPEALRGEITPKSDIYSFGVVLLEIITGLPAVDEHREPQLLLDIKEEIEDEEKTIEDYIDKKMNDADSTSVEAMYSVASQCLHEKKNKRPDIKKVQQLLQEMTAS
Broadly, the IC50 is the concentration at which inhibition is half-maximal. High values mean weaker potency in that assay, low ones greater potency in that assay. As for `O=C(Nc1cc(C2CCNCC2)nn1-c1ccc(C2CC2)cc1F)c1cnn2cccnc12` [Example 72, N-(1-(4-cyclopropyl-2-fluorophenyl)-3-(piperidin-4-yl)-1H-pyrazol-5-yl)pyrazolo[1,5-a]pyrimidine-3-carboxamide], the IC50 was less than 0.1 µM.
For `CS(=O)(=O)N1CCC(c2cc(NC(=O)c3cnn4cccnc34)n(-c3ccc(C4CC4)cc3F)n2)CC1` [Example 73, N-(1-(4-cyclopropyl-2-fluorophenyl)-3-(1-(methylsulfonyl)piperidin-4-yl)-1H-pyrazol-5-yl)pyrazolo[1,5-a]pyrimidine-3-carboxamide], the 50% inhibitory concentration (IC50) is less than 0.1 µM.
The same measure, in the same setting: for `CC(C)N1CCC(c2cc(NC(=O)c3cnn4cccnc34)n(-c3ccc(C4CC4)cc3F)n2)CC1` [Example 74, N-(1-(4-cyclopropyl-2-fluorophenyl)-3-(1-isopropylpiperidin-4-yl)-1H-pyrazol-5-yl)pyrazolo[1,5-a]pyrimidine-3-carboxamide] the value was less than 0.1 µM; for `O=C(Nc1cc(C2CCN(C3CCC3)CC2)nn1-c1ccc(C2CC2)cc1F)c1cnn2cccnc12` [Example 75, N-(3-(1-cyclobutylpiperidin-4-yl)-1-(4-cyclopropyl-2-fluorophenyl)-1H-pyrazol-5-yl)pyrazolo[1,5-a]pyrimidine-3-carboxamide], less than 0.1 µM.
Same read-out and setting: the figure for `O=C(Nc1cc(C2CCNCC2)nn1-c1c(F)cc(C2CC2)cc1F)c1cnn2cccnc12` [Example 77, N-(1-(4-cyclopropyl-2,6-difluorophenyl)-3-(piperidin-4-yl)-1H-pyrazol-5-yl)pyrazolo[1,5-a]pyrimidine-3-carboxamide] is less than 0.1 µM; for `O=C(Nc1cc(C2CNC2)nn1-c1ccc(C2CC2)cc1F)c1cnn2cccnc12` [Example 87, N-(3-(azetidin-3-yl)-1-(4-cyclopropyl-2-fluorophenyl)-1H-pyrazol-5-yl)pyrazolo[1,5-a]pyrimidine-3-carboxamide] it is less than 0.1 µM; for `CC(C)N1CC(c2cc(NC(=O)c3cnn4cccnc34)n(-c3ccc(C4CC4)cc3F)n2)C1` [Example 88, N-(1-(4-cyclopropyl-2-fluorophenyl)-3-(1-isopropylazetidin-3-yl)-1H-pyrazol-5-yl)pyrazolo[1,5-a]pyrimidine-3-carboxamide] it is less than 0.1 µM.
For `O=C(Nc1cc(C2CN(C3CCC3)C2)nn1-c1ccc(C2CC2)cc1F)c1cnn2cccnc12` [Example 89, N-(3-(1-cyclobutylazetidin-3-yl)-1-(4-cyclopropyl-2-fluorophenyl)-1H-pyrazol-5-yl)pyrazolo[1,5-a]pyrimidine-3-carboxamide], the IC50 is less than 0.1 µM.
Consider `Cc1ccc(-n2nc(C3CCC(C(=O)N(C)C)CC3)cc2NC(=O)c2cnn3cccnc23)cc1` (stereo not drawn) [Example 96, N-(3-(4-(dimethylcarbamoyl)cyclohexyl)-1-(p-tolyl)-1H-pyrazol-5-yl)pyrazolo[1,5-a]pyrimidine-3-carboxamide], for which the IC50 was less than 0.1 µM.

Staying with this experiment, now noted: 100 μM ATP, 30 minutes at 25° C.; μM.
`Cc1ccc(-n2nc(C3CCN(C(C)C)CC3)cc2NC(=O)c2cnn3cccnc23)c(Cl)c1` [Example 66, N-(1-(2-chloro-4-methylphenyl)-3-(1-isopropylpiperidin-4-yl)-1H-pyrazol-5-yl)pyrazolo[1,5-a]pyrimidine-3-carboxamide] yielded an IC50 of less than 1 µM.
Consider `O=C(Nc1cc(C2CCNCC2)nn1-c1cc(F)cc(F)c1)c1cnn2cccnc12` [Example 67, N-(1-(3,5-difluorophenyl)-3-(piperidin-4-yl)-1H-pyrazol-5-yl)pyrazolo[1,5-a]pyrimidine-3-carboxamide], for which the IC50 is greater than 1 µM.
`Cc1cc(F)ccc1-n1nc(C2CCNCC2)cc1NC(=O)c1cnn2cccnc12` [Example 68, N-(1-(4-fluoro-2-methylphenyl)-3-(piperidin-4-yl)-1H-pyrazol-5-yl)pyrazolo[1,5-a]pyrimidine-3-carboxamide] yielded an IC50 greater than 1 µM.
Same read-out and setting: for `Cc1cc(F)ccc1-n1nc(C2CCN(C(C)C)CC2)cc1NC(=O)c1cnn2cccnc12` [Example 69, N-(1-(4-fluoro-2-methylphenyl)-3-(1-isopropylpiperidin-4-yl)-1H-pyrazol-5-yl)pyrazolo[1,5-a]pyrimidine-3-carboxamide] the value was less than 1 µM; for `O=C(Nc1cc(C2CCNCC2)nn1-c1ccc(Br)cc1F)c1cnn2cccnc12` [Example 70, N-(1-(4-bromo-2-fluorophenyl)-3-(piperidin-4-yl)-1H-pyrazol-5-yl)pyrazolo[1,5-a]pyrimidine-3-carboxamide], less than 1 µM; for `CS(=O)(=O)N1CCC(c2cc(NC(=O)c3cnn4cccnc34)n(-c3ccc(Br)cc3F)n2)CC1` [Example 71, N-(1-(4-bromo-2-fluorophenyl)-3-(1-(methylsulfonyl)piperidin-4-yl)-1H-pyrazol-5-yl)pyrazolo[1,5-a]pyrimidine-3-carboxamide], less than 1 µM.
As for `O=C(Nc1cc(C2CCN(CC(F)(F)F)CC2)nn1-c1ccc(C2CC2)cc1F)c1cnn2cccnc12` [Example 76, N-(1-(4-cyclopropyl-2-fluorophenyl)-3-(1-(2,2,2-trifluoroethyl)piperidin-4-yl)-1H-pyrazol-5-yl)pyrazolo[1,5-a]pyrimidine-3-carboxamide], the IC50 is less than 1 µM.
Same read-out and setting: the figure for `Cc1ccc(-n2nc(C3COCCN3)cc2NC(=O)c2cnn3cccnc23)cc1` (stereo not drawn) [Example 79, N-(3-(morpholin-3-yl)-1-(p-tolyl)-1H-pyrazol-5-yl)pyrazolo[1,5-a]pyrimidine-3-carboxamide] is less than 1 µM; for `Cc1ccc(-n2nc(C3CCNC3)cc2NC(=O)c2cnn3cccnc23)cc1` (stereo not drawn) [Example 80, N-(3-(pyrrolidin-3-yl)-1-(p-tolyl)-1H-pyrazol-5-yl)pyrazolo[1,5-a]pyrimidine-3-carboxamide] it is less than 1 µM.
The same measure, in the same setting: for `Cc1ccc(-n2nc(C3CNC3)cc2NC(=O)c2cnn3cccnc23)cc1` [Example 82, N-(3-(azetidin-3-yl)-1-(p-tolyl)-1H-pyrazol-5-yl)pyrazolo[1,5-a]pyrimidine-3-carboxamide] the value was greater than 1 µM; for `Cc1ccc(-n2nc(C3CN(S(C)(=O)=O)C3)cc2NC(=O)c2cnn3cccnc23)cc1` [Example 83, N-(3-(1-(methylsulfonyl)azetidin-3-yl)-1-(p-tolyl)-1H-pyrazol-5-yl)pyrazolo[1,5-a]pyrimidine-3-carboxamide], less than 1 µM; for `Cc1ccc(-n2nc(C3CN(S(=O)(=O)C4CC4)C3)cc2NC(=O)c2cnn3cccnc23)cc1` [Example 84, N-(3-(1-(cyclopropylsulfonyl)azetidin-3-yl)-1-(p-tolyl)-1H-pyrazol-5-yl)pyrazolo[1,5-a]pyrimidine-3-carboxamide], less than 1 µM.
`Cc1ccc(-n2nc(C3CN(S(=O)(=O)C4CCCC4)C3)cc2NC(=O)c2cnn3cccnc23)cc1` [Example 85, N-(3-(1-(cyclopentylsulfonyl)azetidin-3-yl)-1-(p-tolyl)-1H-pyrazol-5-yl)pyrazolo[1,5-a]pyrimidine-3-carboxamide] yielded an IC50 of less than 1 µM.
`COCCS(=O)(=O)N1CC(c2cc(NC(=O)c3cnn4cccnc34)n(-c3ccc(C)cc3)n2)C1` [Example 86, N-(3-(1-((2-methoxyethyl)sulfonyl)azetidin-3-yl)-1-(p-tolyl)-1H-pyrazol-5-yl)pyrazolo[1,5-a]pyrimidine-3-carboxamide] came in with an IC50 of less than 1 µM.
In turn, `CC(=O)c1ccc(-n2nc(C3CCN(S(C)(=O)=O)CC3)cc2NC(=O)c2cnn3cccnc23)cc1` [Example 90, N-(1-(4-acetylphenyl)-3-(1-(methylsulfonyl)piperidin-4-yl)-1H-pyrazol-5-yl)pyrazolo[1,5-a]pyrimidine-3-carboxamide] showed a half-inhibitory concentration (IC50) of less than 1 µM.
For the compound `Cc1ccc(-n2nc(C3(C)CCNCC3)cc2NC(=O)c2cnn3cccnc23)cc1` [Example 91, N-(3-(4-methylpiperidin-4-yl)-1-(p-tolyl)-1H-pyrazol-5-yl)pyrazolo[1,5-a]pyrimidine-3-carboxamide], the IC50 is less than 1 µM.
The same measure, in the same setting: the figure for `Cc1ccc(-n2nc(C3(C)CCN(S(C)(=O)=O)CC3)cc2NC(=O)c2cnn3cccnc23)cc1` [Example 92, N-(3-(4-methyl-1-(methylsulfonyl)piperidin-4-yl)-1-(p-tolyl)-1H-pyrazol-5-yl)pyrazolo[1,5-a]pyrimidine-3-carboxamide] is greater than 1 µM; for `COC(=O)C1CCC(c2cc(NC(=O)c3cnn4cccnc34)n(-c3ccc(C)cc3)n2)CC1` (stereo not drawn) [Example 93, methyl 4-(5-(pyrazolo[1,5-a]pyrimidine-3-carboxamido)-1-(p-tolyl)-1H-pyrazol-3-yl)cyclohexanecarboxylate] it is greater than 1 µM.
The compound `Cc1ccc(-n2nc(C3CCC(C(=O)O)CC3)cc2NC(=O)c2cnn3cccnc23)cc1` (stereo not drawn) [Example 94, 4-(5-(pyrazolo[1,5-a]pyrimidine-3-carboxamido)-1-(p-tolyl)-1H-pyrazol-3-yl)cyclohexanecarboxylic acid] yielded an IC50 greater than 1 µM.
Compound `Cc1ccc(-n2nc(C3CCC(C(N)=O)CC3)cc2NC(=O)c2cnn3cccnc23)cc1` (stereo not drawn) [Example 95, N-(3-(4-carbamoylcyclohexyl)-1-(p-tolyl)-1H-pyrazol-5-yl)pyrazolo[1,5-a]pyrimidine-3-carboxamide] yielded a half-maximal inhibitory concentration (IC50) of less than 1 µM.
Compound `Cc1ccc(-n2nc(C3CCC(C(F)(F)F)CC3)cc2NC(=O)c2cnn3cccnc23)cc1` (stereo not drawn) [Example 97, N-(1-(p-tolyl)-3-(4-(trifluoromethyl)cyclohexyl)-1H-pyrazol-5-yl)pyrazolo[1,5-a]pyrimidine-3-carboxamide] came in with an IC50 greater than 1 µM.
